We go through eleven molecules from ChEMBL document CHEMBL1201862, “PubChem BioAssay data set” (2004).

Test systems include HCT-15; LOX IMVI; SF-539; CCRF-CEM; U-251; MCF7; KM-20L2; A549; NCI-H460; MDA-MB-435; RPMI-8226; DU-145; CAKI-1; UACC-62; SF-268; OVCAR-5; RXF 393; K562; M14; HOP-62.
Holding throughout (assay): inhibition of tumour cell growth, NCI panel, 48 h

“And” between values parts separate entries of the source, which are not always exact repeats. Equal entries are not always repeated. Structures can show the parent of a compound that is named as a salt.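 All cell lines were grown in 96-well plates and treated with compound for 48 hours. Abbreviation: GI50, concentration required for 50% inhibition of growth.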 The source made the active and inactive calls. Cut-off read from the data, not from the text of the source: active = GI50 up to about 1.1 µM and inactive = higher. Bounds are passed on as bounds.

In the case of `O=C1CSC(/C(=C\c2ccc(Cl)cc2)c2nc3ccccc3[nH]2)=N1`, the GI50 was 22.8 µM in the experiment on HCT-15; 15.8 µM (inactive) in the experiment on LOX IMVI; 0.659 µM (active) in the experiment on SF-539; 27.6 µM (inactive) in the experiment on CCRF-CEM; 12.3 µM (inactive) in the experiment on U-251; 14.6 µM (inactive) in the experiment with MCF7. For the same molecule, the GI50 was 31 µM (inactive) in the experiment on KM-20L2; 4.05 µM (inactive) in the experiment with A549; 13.3 µM (inactive) with NCI-H460; 17.9 µM (inactive) in the experiment with MDA-MB-435; 33.8 µM (inactive) in the experiment on RPMI-8226; 13.4 µM (inactive) with DU-145. Also, the GI50 was 8.79 µM (inactive) in the experiment on CAKI-1; 18.7 µM (inactive) in the experiment with UACC-62; 5.08 µM (inactive) in the experiment with SF-268; 17 µM (inactive) with OVCAR-5; 0.738 µM (active) in the experiment on RXF 393; 34.4 µM (inactive) with K562. Further, the values for the GI50 in the experiment on M14 and in the experiment with HOP-62 were 22.6 µM (inactive) and 1.94 µM (inactive), respectively.
Consider `NC1=NS(=O)(=O)Nc2nc(-c3cccs3)[nH]c21`, for which the GI50 with HCT-15 was greater than 100 µM; in the experiment with LOX IMVI, > 100 µM (inactive); in the experiment with SF-539, > 100 µM (inactive); in the experiment with CCRF-CEM, > 100 µM (inactive); with U-251, > 100 µM (inactive); with KM-20L2, > 100 µM (inactive). Further, the GI50 in the experiment on A549, in the experiment with NCI-H460, in the experiment with RPMI-8226, in the experiment on CAKI-1, in the experiment with UACC-62 and with SF-268 was > 100 µM (inactive) each time. Further, the GI50 with OVCAR-5, in the experiment on RXF 393, in the experiment on K562, in the experiment with M14 and with HOP-62 was > 100 µM (inactive) in each case.
As to `COC(=O)CC1(O)C(=O)OCc2c1cc1n(c2=O)Cc2c-1nc1ccccc1c2OC` (centres undefined), the GI50 with HCT-15 is 4.61 µM; in the experiment on LOX IMVI it was 0.0993 µM (active); with SF-539, 0.111 µM (active); with CCRF-CEM it was < 0.0171 µM (active); in the experiment with U-251 it was 0.0964 µM (active); with KM-20L2, 1.95 µM (inactive). The GI50 with A549 is 0.238 µM (active); in the experiment on NCI-H460 it was 0.0185 µM (active); in the experiment with RPMI-8226, 0.582 µM (active); in the experiment with CAKI-1, 0.0673 µM (active); with UACC-62, 0.0869 µM (active); with SF-268, 0.133 µM (active). In addition, the GI50 was 0.902 µM (active) in the experiment with OVCAR-5; 0.508 µM (active) in the experiment with RXF 393; 0.918 µM (active) with K562; 0.188 µM (active) with M14; 0.0461 µM (active) with HOP-62.
`O=C(N/C(=C\c1cc(Cl)ccc1Cl)c1nc2c(O)nc(S)nc2[nH]1)c1ccccc1`: the GI50 was 17.2 µM in the experiment with HCT-15; 22.1 µM (inactive) with LOX IMVI; 27.7 µM (inactive) in the experiment with SF-539; 13.4 µM (inactive) in the experiment with CCRF-CEM; 32.1 µM (inactive) in the experiment with U-251; 41.4 µM (inactive) with KM-20L2. For the same molecule, the GI50 was 98.6 µM (inactive) in the experiment with A549; 34.5 µM (inactive) in the experiment on NCI-H460; 12.6 µM (inactive) in the experiment with RPMI-8226; 38.5 µM (inactive) in the experiment on CAKI-1; 19.7 µM (inactive) with UACC-62; 33.4 µM (inactive) in the experiment on SF-268. The GI50 is > 100 µM (inactive) with OVCAR-5; 21.6 µM (inactive) in the experiment on RXF 393; 7.43 µM (inactive) in the experiment on K562; 22.9 µM (inactive) with M14; > 100 µM (inactive) with HOP-62.
Turning to `Cc1cc(N(CCC#N)CCC#N)ccc1/C=C1N=C(/C=C\c2ccccc2)OC\1=O`, the GI50 in the experiment on HCT-15 is greater than 100 µM; in the experiment on LOX IMVI, > 100 µM (inactive); with SF-539 it was > 100 µM (inactive); with CCRF-CEM it was > 100 µM (inactive); in the experiment on U-251, > 100 µM (inactive); in the experiment on KM-20L2 it was > 100 µM (inactive). The GI50 with A549, with NCI-H460, with RPMI-8226, with CAKI-1, with UACC-62 and in the experiment with SF-268 was > 100 µM (inactive) each time. In addition, the GI50 in the experiment with OVCAR-5, with RXF 393, with K562, in the experiment on M14 and with HOP-62 was > 100 µM (inactive) each time.
On to `O=C(Nc1ccc(Sc2ccc(/N=N/c3c(O)c(S(=O)(=O)O)cc4cc(S(=O)(=O)O)ccc34)cc2)cc1)c1ccc(/N=N/c2c(O)c(S(=O)(=O)O)cc3cc(S(=O)(=O)O)ccc23)cc1`, for which the GI50 is 14.9 µM with HCT-15; 18.5 µM (inactive) in the experiment on LOX IMVI; 45.8 µM (inactive) in the experiment with SF-539; 21.2 µM (inactive) in the experiment with CCRF-CEM; 35.2 µM (inactive) with U-251; 63.5 µM (inactive) in the experiment with KM-20L2. Moreover, the GI50 in the experiment on A549 was 26.7 µM (inactive); with NCI-H460, 14.5 µM (inactive); with RPMI-8226 it was 5.53 µM (inactive); with CAKI-1, 37.4 µM (inactive); with UACC-62, 22.2 µM (inactive); in the experiment with SF-268, 38.7 µM (inactive). The GI50 with OVCAR-5 is 47.2 µM (inactive); with RXF 393, 33.1 µM (inactive); in the experiment on K562 it was 19.4 µM (inactive); with M14, 24.9 µM (inactive); in the experiment with HOP-62, 88.1 µM (inactive).
For `CCc1cccc(C(C)C)c1N1C(=O)C(=O)C(c2nc3ccccc3s2)C(=O)C1=O`, the GI50 is 29.4 µM with HCT-15; > 46.2 µM (inactive) with LOX IMVI; > 50 µM (inactive) with SF-539; 11.3 µM (inactive) in the experiment on CCRF-CEM; > 48.3 µM (inactive) with U-251; 48.4 µM (inactive) with KM-20L2. Moreover, the GI50 in the experiment with A549 is > 50 µM (inactive); in the experiment on NCI-H460, > 50 µM (inactive); in the experiment on RPMI-8226 it was 18.3 µM (inactive); in the experiment on CAKI-1, > 50 µM (inactive); in the experiment on UACC-62 it was > 50 µM (inactive); with SF-268, > 50 µM (inactive). For the same molecule, the GI50 in the experiment with OVCAR-5 is > 50 µM (inactive); in the experiment on RXF 393, > 50 µM (inactive); in the experiment with K562, 16.3 µM (inactive); in the experiment with M14, > 44.4 µM (inactive); in the experiment with HOP-62, > 50 µM (inactive).
`CN(C)CCCN1c2ccccc2Sc2ccc(C(F)(F)F)cc21` [TRIFLUPROMAZINE HYDROCHLORIDE]: the GI50 is 17.1 µM and 16.1 µM with HCT-15; 15.5 µM (inactive) and 13.9 µM (inactive) in the experiment on LOX IMVI; 15.2 µM (inactive) and 19.1 µM (inactive) with SF-539; 20.3 µM (inactive) and 16.1 µM (inactive) in the experiment on CCRF-CEM; 14.2 µM (inactive) and 15.7 µM (inactive) with U-251; 16.1 µM (inactive) with MCF7. Moreover, the GI50 with KM-20L2 was 11.3 µM (inactive); in the experiment on A549, 17 µM (inactive) and 16.9 µM (inactive); in the experiment with NCI-H460, 16.4 µM (inactive) and 15 µM (inactive); in the experiment with MDA-MB-435, 15.8 µM (inactive); in the experiment with RPMI-8226, 21.2 µM (inactive) and 14.9 µM (inactive); in the experiment with DU-145, 17.2 µM (inactive). Besides, the GI50 in the experiment on CAKI-1 is 11.8 µM (inactive); in the experiment with UACC-62 it was 16.6 µM (inactive) and 16.8 µM (inactive); with SF-268 it was 14 µM (inactive) and 15 µM (inactive); in the experiment with OVCAR-5, 17.1 µM (inactive); with RXF 393, 13 µM (inactive) and 16 µM (inactive); in the experiment with K562 it was > 10 µM (inactive) and 13.8 µM (inactive).
In the case of `COC1C(O)CC(OC2CC(OC3CC(O[C@@H]4C(=O)c5c(cc6cc(OC7CC(OC8CC(O)C(O)C(C)O8)C(O)C(C)O7)c(C)c(O)c6c5O)C[C@H]4[C@H](OC)C(=O)[C@@H](O)[C@@H](C)O)OC(C)C3O)OC(C)C2O)OC1C` (some centres undefined), the GI50 in the experiment on HCT-15 was 0.673 µM; in the experiment with SF-539, < 0.0119 µM (active); in the experiment on U-251, 0.0112 µM (active); in the experiment on KM-20L2 it was 0.0223 µM (active); in the experiment on A549 it was < 0.0151 µM (active); with NCI-H460 it was < 0.01 µM (active). Besides, the GI50 was < 0.01 µM (active) in the experiment with RPMI-8226; < 0.01 µM (active) in the experiment on DU-145; 0.356 µM (active) in the experiment on CAKI-1; < 0.0131 µM (active) in the experiment with UACC-62; 0.0141 µM (active) with SF-268; < 0.0175 µM (active) in the experiment with OVCAR-5. In addition, the GI50 is < 0.01 µM (active) in the experiment on RXF 393, 0.0267 µM (active) in the experiment on M14 and < 0.012 µM (active) in the experiment on HOP-62.
Turning to `CC(C)(CN1CCOCC1)C(=O)/C=C/c1ccc(/C=C/C(=O)C(C)(C)CN2CCOCC2)cc1`, the GI50 in the experiment with HCT-15 was 0.297 µM; with LOX IMVI, 0.393 µM (active); in the experiment with SF-539 it was 2.07 µM (inactive); with CCRF-CEM it was 1.36 µM (inactive); in the experiment with U-251, 1.24 µM (inactive); in the experiment on KM-20L2 it was 1.36 µM (inactive). Further, the GI50 in the experiment on A549 was 2.89 µM (inactive); with NCI-H460 it was 3.5 µM (inactive); in the experiment with RPMI-8226, 2.7 µM (inactive); in the experiment on CAKI-1, 1.4 µM (inactive); in the experiment on UACC-62, 1.56 µM (inactive); in the experiment with SF-268, 1.59 µM (inactive). The GI50 is 1.8 µM (inactive) with OVCAR-5; 1.83 µM (inactive) with RXF 393; 0.239 µM (active) with K562; 1.69 µM (inactive) in the experiment on M14; 2.46 µM (inactive) in the experiment on HOP-62.
For `Nc1nc[n+](Cc2ccccc2CCO)c2[nH]cnc12`, the GI50 was greater than 100 µM with HCT-15; > 100 µM (inactive) with LOX IMVI; > 100 µM (inactive) with SF-539; > 100 µM (inactive) in the experiment with CCRF-CEM; > 100 µM (inactive) with U-251; > 100 µM (inactive) in the experiment on KM-20L2. The GI50 in the experiment with A549, in the experiment on NCI-H460, in the experiment with RPMI-8226, in the experiment on CAKI-1, in the experiment on UACC-62 and in the experiment with SF-268 was > 100 µM (inactive) in each case. The GI50 in the experiment with OVCAR-5, in the experiment with RXF 393, in the experiment on K562, with M14 and in the experiment with HOP-62 was > 100 µM (inactive) throughout.
